{"source": "patent US20170190726A9", "about": "“PRODRUG FOR RELEASE OF CISPLATIN AND CYCLOOXYGENASE INHIBITOR” (priority 2013, published 2017)", "key": {"RAW 264.7 macrophages": {"system": "RAW 264.7 macrophages", "test": "MTT cell viability of LPS activated RAW 264.7 macrophages", "format": "cell-based, mouse", "conditions": "10 μM, 24 h", "description": "FIG. 16: Cytotoxicity of Platin-A (10 μM), cisplatin (10 μM), aspirin (10 μM), and cisplatin (10 μM)+aspirin (10 μM) on LPS activated RAW 264.7 macrophages with incubation time of 24 h.\nThe cytotoxic behaviors of cisplatin, aspirin, cisplatin+aspirin, and Platin-A were evaluated using the MTT assay against PC3, DU145, LNCaP, and RAW 264.7 cells. Cells (2000 cells/well for PC3, and DU145 cells; 10000 cells/well for LNCaP and RAW 264.7) were seeded on a 96-well plate in 100 μL of desired medium and incubated for 24 h. The cells were treated with different constructs at varying concentrations and incubated for 72 h at 37° C. except for RAW 264.7 macrophages. An incubation time period of 24 h was used for macrophages. The cells were then treated with 20 μL of MTT (5 mg/mL in PBS) for 5 h. The medium was removed, the cells were lysed with 100 μL of DMSO, and the absorbance of the purple formazan was recorded at 550 nm using a Bio-Tek Synergy HT microplate reader. Each well was performed in triplicate. […] The IC50 values were reported at +95% confidence intervals."}, "[1]": {"test": "Aspirin release from Platin-A by RP-HPLC after sodium ascorbate reduction", "format": "physicochemical", "conditions": "acetonitrile-water, HPLC 280 nm", "description": "The remarkable anticancer activity of cisplatin is due to its inherent proficiency to bind with the N7 position of guanine bases leading to DNA damage. To mimic the intracellular reduction of Platin-A to cisplatin and activity of generated cisplatin with DNA, Platin-A was reduced with sodium ascorbate in the presence of 2′-deoxyguanosine 5′-monophosphate sodium salt hydrate (5′-GMP) as a truncated version of DNA, and the products were analyzed by matrix-assisted laser desorption/ionization (MALDI)-time of flight (TOF)-mass spectrometry (MS). […] Binding studies with 5′-GMP provided strong evidence that cisplatin released upon reduction of Platin-A will interact with nuclear DNA efficiently. The release of the other drug, aspirin from Platin-A was analyzed by HPLC (FIG. 8). […] As time progress, formation of increasing amounts of salicylic acid, the main metabolite of aspirin was detected (FIG. 8). This observation supported the release of aspirin moiety from Platin-A in its pristine form or its final metabolite form for COX inhibitory and anti-inflammatory activities, respectively.\nThe ability of Platin-A to release aspirin under reducing atmosphere was studied RP-HPLC. Reduction of Platin-A (2.97 mg, 2 mM) was carried out using sodium ascorbate (5.28 mg, 10 mM) in acetonitrile-water (1:2, 3 mL) and reduction product was examined by HPLC. […]"}, "IL-10": {"system": "IL-10", "test": "ELISA of IL-10 in LPS-stimulated RAW 264.7 macrophages", "format": "cell-based, mouse", "conditions": "preventive: pretreatment 10 μM 6 h, then LPS 12 h", "excerpt": "Chronic inflammation can be important for progression of human cancers, including PCa. Pro-inflammatory cytokines, TNF-α and interleukin (IL)-6, can be important for proliferation, survival, metastasis, and escape from immune surveillance of cancers. Chronic inflammation by activation of toll like receptors (TLRs) on cancer cells creates a tumor micro-environment which impairs the anti-tumor function of the immune system to allow to develop and survive. The cytokines TNF-α and IL-6 are potent activators of NF-κB, a key modulator of inflammation-induced carcinogenesis. Enhanced TNF-α secretion mediates cisplatin nephrotoxicity. The anti-inflammatory cytokine, IL-10 inhibits inflammatory and cytotoxic pathways in cisplatin-induced acute renal injury. […] First, we evaluated the effects of Platin-A, cisplatin, a combination of cisplatin and aspirin, and aspirin on pro-inflammatory cytokines IL-6, TNF-α, and anti-inflammatory IL-10 production in LPS-stimulated RAW 264.7 macrophages. […] To exclude the possibility that the decrease in the cytokines levels was simply due to the cytotoxicity of Platin-A, cell viability was evaluated. […]\nRAW 264.7 cells were plated at a concentration of 10,000 cells/mL in 96 plates and allowed to grow overnight. […] The absorbance was recorded at 450 nm using a BioTek Synergy HT well plate reader."}, "Cyclic voltammetry": {"test": "Cyclic voltammetry", "format": "physicochemical", "description": "FIG. 6: Cyclic voltammograms of ‘Platin-A’ in 1:4 dimethyformamide (DMF)-phosphate buffer-0.1 M KCl at two different pH values.\nElectrochemical measurements were made at 25° C. on an analytical system model CHI 920c potentiostat from CH Instruments, Inc. (Austin, Tex.). A conventional three-electrode set-up comprising a glassy carbon working electrode, platinum wire auxiliary electrode and an Ag/AgCl (3M KCl) reference electrode was used for electrochemical measurements. The electrochemical data were uncorrected for junction potentials. KCl was used as a supporting electrolyte. Platin-A (2 mM) solutions were prepared in 20% DMF-phosphate buffered saline (PBS) of pH 6.4 and 7.4 with […] and voltammograms were recorded at different scan rates (FIG. 6)."}}}
{"compound": "CC(=O)Oc1ccccc1C(=O)[O][Pt]([NH2])([NH2])([OH])([Cl])[Cl]", "note": "[Platin-A]", "values": [{"measurement": "cell viability", "setting": "RAW 264.7 macrophages", "result": "did not affect cell viability"}, {"measurement": "release of aspirin upon reduction", "setting": "[1]", "result": "initially produces aspirin upon reduction"}, {"measurement": "level of IL-10", "setting": "IL-10", "result": "enhanced level of IL-10"}, {"measurement": "positive shift of reduction potential", "setting": "Cyclic voltammetry; pH 6.4 compared with pH 7.4", "result": 42, "unit": "mV"}, {"measurement": "reduction potential", "setting": "Cyclic voltammetry; pH 7.4, vs. normal hydrogen electrode (NHE)", "result": "−536", "unit": "mV"}]}
